Measurements published in patent US7091192B1, “Linear cyclodextrin copolymers” (California Institute of Technology, priority 1998, dated 2006).

How the values were obtained:
[1] = tested on: KB-VI (a multidrug resistant derivative of KB) cell line; assay: MTT toxicity assay, small molecule delivery to cultured cells (KB-VI)
Protocol: (§1) Media containing doxorubicin and doxorubicin/CD-polymer complexes at various concentrations were applied to cultured cell lines. After 5 hours, the media was removed and replaced with fresh media. […] ([…], “Culture of Animal Cells”, 3rd ed., Wiley-Liss: New York (1994)). […] For receptor-mediated delivery, a ligand such a folate is covalently attached to the CD-polymer used for doxorubicin complexation.

[2] = tested on: KB cell line; assay: MTT toxicity assay, small molecule delivery to cultured cells (KB)
Protocol: as §1

[3] = pH 7.1; Husain et al., Applied Spectroscopy 1992; cited from earlier work
[4] = Homo sapiens, KB, 5 h, read-out: IC50 (μM of doxorubicin)

Compound: COc1cccc2c1C(=O)c1c(O)c3c(c(O)c1C2=O)C[C@@](O)(C(=O)CO)C[C@@H]3O[C@H]1C[C@H](N)[C@H](O)[C@H](C)O1 [doxorubicin]
- IC50 [1, 4]: ~10 µM
- IC50 [2, 4]: ~0.1 µM

Compound: OC[C@H]1O[C@@H]2O[C@H]3[C@H](O)[C@@H](O)[C@@H](O[C@H]4[C@H](O)[C@@H](O)[C@@H](O[C@H]5[C@H](O)[C@@H](O)[C@@H](O[C@H]6[C@H](O)[C@@H](O)[C@@H](O[C@H]7[C@H](O)[C@@H](O)[C@@H](O[C@H]8[C@H](O)[C@@H](O)[C@@H](O[C@H]1[C@H](O)[C@H]2O)O[C@@H]8CO)O[C@@H]7CO)O[C@@H]6CO)O[C@@H]5CO)O[C@@H]4CO)O[C@@H]3CO [β-CD, β-cyclodextrin]
- Association constant between β-CD and doxorubicin [3]: 210 M⁻¹

Compound: β-cyclodextrin(cystamine)-DTBP Copolymer [Copolymer 15]
- Toxicity to KB-VI cells in the absence of doxorubicin [1]: not toxic
- Toxicity to KB cells in the absence of doxorubicin [2]: not toxic
